Measured values from patent publication EP4741386A1 (Jiangsu Yahong Meditech Co., Ltd., priority 2023, dated 2025).

Columns and labels:
[1] = target: T1, Recombinant human His6-USP1/His6-UAF1 complex protein (Homo sapiens, UniProt O94782); assay: In vitro inhibitory activity against USP1 (Ubiquitin Rhodamine 110 fluorescence detection, 384-well plate); type: biochemical; details: Ub-Rho substrate, 1 hour pre-incubation, read after 30 minutes
T1 construct: His6; purchased R&D E-568-050
Summary of the method: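 Compounds, kept as 50 mM DMSO stocks, were acoustically dispensed into modified Tris buffer. Inhibition of recombinant human His6-USP1/His6-UAF1 was read by fluorescence from cleavage of Ub-Rho110 substrate.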

[2] = test system: MDA-MB-436; assay: CTG experiment for cell viability (CellTiter-Glo, 96-well plate, 7 days); type: cell-based; details: MDA-MB-436 cells, 7 days culture with compound
Summary of the method: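 Viability was read by CellTiter-Glo luminescence after 10 min at room temperature, once the compound-containing medium had been replaced with PBS. Before that, MDA-MB-436 cells grown in DMEM were exposed to compounds for 7 days at 37°C. Curve fitting followed the enzyme assay method.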

[3] = Homo sapiens, MDA-MB-436, 168 h

T1 sequence (O94782 whole entry): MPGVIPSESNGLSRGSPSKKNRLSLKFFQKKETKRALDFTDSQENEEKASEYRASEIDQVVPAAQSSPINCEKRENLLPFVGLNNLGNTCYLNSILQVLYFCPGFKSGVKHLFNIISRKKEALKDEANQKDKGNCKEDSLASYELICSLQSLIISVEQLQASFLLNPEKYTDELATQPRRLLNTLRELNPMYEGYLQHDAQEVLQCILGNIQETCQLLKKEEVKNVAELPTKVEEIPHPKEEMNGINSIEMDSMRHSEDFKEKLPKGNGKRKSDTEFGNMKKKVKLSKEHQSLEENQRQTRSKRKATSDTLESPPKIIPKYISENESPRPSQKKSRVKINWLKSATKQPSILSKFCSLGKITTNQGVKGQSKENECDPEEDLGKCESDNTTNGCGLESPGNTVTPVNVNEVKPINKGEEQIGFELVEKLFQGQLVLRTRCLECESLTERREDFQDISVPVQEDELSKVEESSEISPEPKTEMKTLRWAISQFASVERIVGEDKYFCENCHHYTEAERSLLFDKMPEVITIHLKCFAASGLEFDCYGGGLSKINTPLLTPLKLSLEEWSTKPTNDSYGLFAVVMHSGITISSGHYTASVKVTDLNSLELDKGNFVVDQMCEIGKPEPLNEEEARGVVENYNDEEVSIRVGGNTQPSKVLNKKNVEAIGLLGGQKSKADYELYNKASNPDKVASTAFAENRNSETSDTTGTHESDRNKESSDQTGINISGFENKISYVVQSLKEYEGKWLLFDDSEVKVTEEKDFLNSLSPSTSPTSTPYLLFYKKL
T1 sequence (Q8TAF3 whole entry partner): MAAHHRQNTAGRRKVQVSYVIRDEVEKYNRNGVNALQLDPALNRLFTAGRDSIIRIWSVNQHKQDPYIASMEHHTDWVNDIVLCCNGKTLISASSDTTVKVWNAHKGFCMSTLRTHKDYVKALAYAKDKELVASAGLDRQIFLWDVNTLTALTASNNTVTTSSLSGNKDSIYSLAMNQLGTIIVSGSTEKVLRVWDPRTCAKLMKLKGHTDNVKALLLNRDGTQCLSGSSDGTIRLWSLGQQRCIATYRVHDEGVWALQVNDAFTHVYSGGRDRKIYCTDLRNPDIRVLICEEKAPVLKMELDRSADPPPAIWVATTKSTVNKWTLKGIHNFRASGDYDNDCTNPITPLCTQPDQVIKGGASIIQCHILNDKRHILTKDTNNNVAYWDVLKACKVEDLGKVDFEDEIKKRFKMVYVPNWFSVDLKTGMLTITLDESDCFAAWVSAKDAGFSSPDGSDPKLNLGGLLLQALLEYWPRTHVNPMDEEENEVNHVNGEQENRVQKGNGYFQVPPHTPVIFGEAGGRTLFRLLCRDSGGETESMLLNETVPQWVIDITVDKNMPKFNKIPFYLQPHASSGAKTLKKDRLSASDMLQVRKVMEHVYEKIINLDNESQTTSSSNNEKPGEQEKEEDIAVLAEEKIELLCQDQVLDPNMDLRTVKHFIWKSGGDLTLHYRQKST

| SMILES | IC50 [1] | IC50 [2, 3] | IC50 [2] |
| --- | --- | --- | --- |
| COc1cnc(-c2c(Cl)cnn2C(C)C)nc1N(C)CC1CCN(c2ccccn2)CC1 [Example 161, 2-(4-Chloro-1-isopropyl-1H-pyrazol-5-yl)-5-methoxy-N-methyl-N-((1-(pyridin-2-yl)piperidin-4-yl)methyl)pyrimidin-4-amine] | 6 nM | 537 nM |  |
| COc1cnc(-c2ccccc2N(C)C)nc1NCc1ccc(-n2nc(C(F)(F)F)cc2C)cc1 [Example 160, 2-(2-(Dimethylamino)phenyl)-5-methoxy-N-(4-(5-methyl-3-(trifluoromethyl)-1H-pyrazol-1-yl)benzyl)pyrimidin-4-amine] | 3.6 nM | 121 nM |  |
| COc1cc(-c2nc(C(F)(F)F)cn2C)ccc1CNc1nc(-c2ccccc2C(C)C)nc2ccoc12 [Example 81, 2-(2-Isopropylphenyl)-N-(2-methoxy-4-(1-methyl-4-(trifluoromethyl)-1H-imidazol-2-yl)benzyl)furo[3,2-d]pyrimidin-4-amine] | 3.7 nM | 66.1 nM |  |
| COc1cnc(-c2c(OC)ncnc2OC)nc1N(C)C[C@H]1CC[C@H](c2nc(C(F)(F)F)cn2C2CC2)CC1 [Example S30, N-(((1R,4R)-4-(1-cyclopropyl-4-(trifluoromethyl)-1H-imidazol-2-yl)cyclohexyl)methyl)-4',5,6'-trimethoxy-N-methyl-[2,5'-bipyrimidin]-4-amine] | 12 nM | 31.9 nM |  |
| Cc1cc(C(F)(F)F)nn1-c1ccc(CNc2nc(-c3ccccc3C(C)C)nc3ccoc23)cc1 [Example 57, 2-(2-Isopropylphenyl)-N-(4-(5-methyl-3-(trifluoromethyl)-1H-pyrazol-1-yl)benzyl)furo[3,2-d]pyrimidin-4-amine] | 4.4 nM | 48.3 nM |  |
| COc1cnc(-c2c(OC)ncnc2C(F)(F)F)nc1N(C)C[C@H]1CC[C@H](c2nc(C(F)(F)F)cn2C)CC1 [Example S36, 4',5-Dimethoxy-N-methyl-N-(((1R,4R)-4-(1-methyl-4-(trifluoromethyl)-1H-imidazol-2-yl)cyclohexyl)methyl)-6'-(trifluoromethyl)-[2,5'-bipyrimidin]-4-amine] | 7.1 nM | 1.8 nM |  |
| C#Cc1cnc(-c2c(C)cnn2C(C)C)nc1NCc1ccc(-c2nc(C(F)(F)F)cn2C)cc1 [Example 203, 5-Ethynyl-2-(1-isopropyl-4-methyl-1H-pyrazol-5-yl)-N-(4-(1-methyl-4-(trifluoromethyl)-1H-imidazol-2-vl)benzyl)pyrimidin-4-amine] | 1.4 nM | 3.3 nM |  |
| COc1cnc(-c2c(Cl)cnn2C(C)C)nc1NCc1ccc(-n2nc(C(F)(F)F)cc2C)cc1 [Example 165, 2-(4-Chloro-1-isopropyl-1H-pyrazol-5-yl)-5-methoxy-N-(4-(5-methyl-3-(trifluoromethyl)-1H-pyrazol-1-yl)benzyl)pyrimidin-4-amine] | 1.4 nM | 7.1 nM |  |
| COc1cnc(-c2ccccc2C(C)C)nc1N(C)CC1CCC(c2ccccn2)CC1 (stereo not drawn) [Example 61, 2-(2-isopropylphenyl)-5-methoxy-N-methyl-N-((4-(pyridin-2-yl)cyclohexyl)methyl)pyrimidin-4-amine] | 11 nM | 813 nM |  |
| CC(C)c1ccccc1-c1ncc(C(F)(F)F)c(NCC2CCN(c3nc(C(F)(F)F)cn3C)CC2)n1 [Example 75, 2-(2-Isopropylphenyl)-N-((1-(1-methyl-4-(trifluoromethyl)-1H-imidazol-2-yl)piperidin-4-yl)methyl)-5-(trifluoromethyl)pyrimidin-4-amine] | 3.7 nM | 331 nM |  |
| COc1cnc(-c2ccccc2C(C)C)nc1NCc1ccc(-c2ccc(C)cn2)cc1 [Example 66, 2-(2-Isopropylphenyl)-5-methoxy-N-(4-(5-methylpyridin-2-yl)benzyl)pyrimidin-4-amine] | 5.6 nM | 14.6 nM |  |

Results, then the compound that gave them:

| IC50 [1] | IC50 [2, 3] | IC50 [2] | SMILES |
| --- | --- | --- | --- |
| 7.5 nM | 64.4 nM |  | COc1cnc(-c2cccnc2C2CC2)nc1NCC1CCN(c2nc(C(F)(F)F)cn2C)CC1 [Example 152, 2-(2-Cyclopropylpyridin-3-yl)-5-methoxy-N-((1-(1-methyl-4-(trifluoromethyl)-1H-imidazol-2-yl)piperidin-4-yl)methyl)pyrimidin-4-amine] |
| 2.9 nM | 4.7 nM |  | COc1cnc(-c2c(OC)ncnc2C2CC2)nc1NCc1ccc(-c2nc(C(F)(F)F)cn2C(C)C)cc1 [Example 106, 4'-Cyclopropyl-N-(4-(1-isopropyl-4-(trifluoromethyl)-1H-imidazol-2-yl)benzyl)-5,6'-dimethoxy-[2,5'-bipyrimidin]-4-amine] |
| 2.9 nM | 14.5 nM |  | COc1cnc(-c2ccccc2C2CC2)nc1NCc1ccc(-n2nc(C(F)(F)F)cc2C)cc1 [Example 170, 2-(2-Cyclopropylphenyl)-5-methoxy-N-(4-(5-methyl-3-(trifluoromethyl)-1H-pyrazol-1-yl)benzyl)pyrimidin-4-amine] |
| 4.4 nM | 15.8 nM |  | COc1cc(-n2nc(C(F)(F)F)cc2C)ccc1CNc1nc(-c2c(OC)ncnc2C2CC2)ncc1OC [Example 102, 4'-Cyclopropyl-5,6'-dimethoxy-N-(2-methoxy-4-(5-methyl-3-(trifluoromethyl)-1H-pyrazol-1-yl)benzyl)-[2,5'-bipyrimidin]-4-amine] |
| 3.1 nM | 0.5 nM |  | COc1ncnc(C2CC2)c1-c1ncc(Cl)c(NCc2ccc(-c3nc(C(F)(F)F)cn3C3CC3)cc2)n1 [Example 125, 5-Chloro-4'-cyclopropyl-N-(4-(1-cyclopropyl-4-(trifluoromethyl)-1H-imidazol-2-yl)benzyl)-6'-methoxy-[2,5'-bipyrimidin]-4-amine] |
| 23 nM | 87.2 nM |  | COc1ncnc(C2CC2)c1-c1nc(NCc2ccc(-c3nc(C(F)(F)F)cn3C)s2)c2occc2n1 [Example 113, 2-(4-Cyclopropyl-6-methoxypyrimidin-5-yl)-N-((5-(1-methyl-4-(trifluoromethyl)-1H-imidazol-2-yl)thiophen-2-yl)methyl)furo[3,2-d]pyrimidin-4-amine] |
| 0.8 nM | 0.4 nM |  | COc1cnc(-c2ccccc2C2CC2)nc1NCc1ccc(-c2nc(C(F)(F)F)cn2C)cc1 [Example 169, 2-(2-Cyclopropylphenyl)-5-methoxy-N-(4-(1-methyl-4-(trifluoromethyl)-1H-imidazol-2-yl)benzyl)pyrimidin-4-amine] |
| 3.5 nM | 5.8 nM |  | COc1cnc(-c2c(OC)ncnc2C2CC2)nc1N(C)CC12C3C4C1C1C2C3C41c1nc(C(F)(F)F)cn1C (stereo not drawn) [Example 207, 2-(4-cyclopropyl-6-methoxy-pyrimidin-5-yl)-5-methoxy-N-methyl-N-[[4-[1-methyl-4-(trifluoromethyl)imidazol-2-yl]cuban-1-yl]methyl]pyrimidin-4-amine] |
| 85 nM | 169 nM |  | COc1cnc(-c2c(OC)ncnc2C2CC2)nc1NCC12CCC(c3nc(C(F)(F)F)cn3C)(CC1)OC2 [Example 210] |
| 1.2 nM | 0.3 nM |  | COc1cnc(-c2ccccc2C(C)C)nc1NCc1ccc(-c2nc(C(F)(F)F)cn2C)cc1 [Example 4, 2-(2-Isopropylphenyl)-5-methoxy-N-(4-(1-methyl-4-(trifluoromethyl)-1H-imidazol-2-yl)benzyl)pyrimidin-4-amine] |
| 3.2 nM | 34.1 nM |  | COc1ncnc(C2CC2)c1-c1ncc(OC(F)F)c(NCc2ccc(-c3nc(C(F)(F)F)cn3C)cc2)n1 [Example 134, 4'-Cyclopropyl-5-(difluoromethoxy)-6'-methoxy-N-(4-(1-methyl-4-(trifluoromethyl)-1H-imidazol-2-yl)benzyl)-[2,5'-bipyrimidin]-4-amine] |
| 3.8 nM |  | 5.8 nM | COc1cnc(-c2c(OC)ncnc2C2CC2)nc1N(C)CC12C3C4C1C1C2C3C41c1nc(C(F)(F)F)cn1C (stereo not drawn) [Example S51, 4'-cyclopropyl-5,6'-dimethoxy-N-methyl-N-((4-(1-methyl-4-(trifluoromethyl)-1H-imidazol-2-yl)cuban-1-yl)methyl)-[2,5'-bipyrimidin]-4-amine] |
| 24 nM | 216 nM |  | COc1ncnc(C2CC2)c1-c1ncc(CO)c(NCc2ccc(-c3nc(C(F)(F)F)cn3C(C)C)cc2)n1 [Example 137, (4'-Cyclopropyl-4-((4-(1-isopropyl-4-(trifluoromethyl)-1H-imidazol-2-yl)benzyl)amino)-6'-methoxy-[2,5'-bipyrimidin]-5-yl)methanol] |
| 12 nM | 10.7 nM |  | COc1cnc(-c2c(OC)ncnc2C2CC2F)nc1NCC12CCC(c3nc(C(F)(F)F)cn3C)(CC1)CC2 (stereo not drawn) [Example S18, 4'-(2-Fluorocyclopropyl)-5,6'-dimethoxy-N-((4-(1-methyl-4-(trifluoromethyl)-1 H-imidazol-2-yl)bicyclo[2.2.2]oct-1-yl)methyl)-[2,5'-bipyrimidin]-4-amine] |
| 8.8 nM | 13.7 nM |  | COc1cnc(-c2c(OC)ncnc2C2CC2)nc1NCC12CCC(c3nc(C(F)(F)F)cn3C)(CC1)CC2 [Example 104, 4'-Cyclopropyl-5,6'-dimethoxy-N-((4-(1-methyl-4-(trifluoromethyl)-1H-imidazol-2-yl)bicyclo[2.2.2]octan-1-yl)methyl)-[2,5'-bipyrimidin]-4-amine] |
| 15 nM | 99.1 nM |  | COc1cc(CNc2nc(-c3c(OC)ncnc3C3CC3)ncc2OC)ccc1-c1nc(C(F)(F)F)cn1C [Example 101, 4'-Cyclopropyl-5,6'-dimethoxy-N-(3-methoxy-4-(1-methyl-4-(trifluoromethyl)-1H-imidazol-2-yl)benzyl)-[2,5'-bipyrimidin]-4-amine] |
